Measurements as given in patent publication US20240216369A1, “THE USE OF A SPLICING MODULATOR FOR A TREATMENT SLOWING PROGRESSION OF HUNTINGTON'S DISEASE” (Novartis AG, priority 2019, published 2024).
“Also recorded” adds a separate entry of the source.

Test system: HTT transcript
Assay: Single oral dose in BacHD mice: HTT transcripts in brain and blood (qPCR)
Assay type: in vivo
Method: Twenty-eight BacHD mice (FVB/N-Tg(HTT*97Q)|Xwy/J transgenic mice—Jackson Laboratories) were used for the experiment. Animal protocols were approved by the Children's Hospital of Philadelphia Institutional Animal Care and use Committee. Mice were housed in a temperature-controlled environment on a 12-h light/dark cycle. Food and water were provided ad libitum.
A single dose of branaplam or vehicle solution was administered by oral gavage. Mice were divided in seven groups (n=4 mice/group) and treated with branaplam (10 mg/kg—2 groups) and 50 mg/kg—3 groups), or vehicle (2 groups) as control. Mice were firmly restrained by grasping the loose skin to immobilize the head, maintained in a vertical position and a 22- to 26-gauge gavage needle was placed in the side of the mouth. The needle was guided following the roof of the mouth into the esophagus and allowed to gently enter in the stomach. The amount of branaplam or vehicle administrated to each mouse was based on the weight recorded before treatment.
At 8 h, 24 h (vehicle and branaplam 10 mg/kg & 50 mg/kg), and 48 h (branaplam 50 mg/kg) after oral gavage, blood and tissue samples were obtained for PK and PD analysis. Mice were anesthetized with isoflurane and blood was obtained via submandibular vein bleeds and collected for RNA extraction (PD analysis) using RNAprotect Animal Blood Tubes, and plasma (PK analysis) using K2EDTA coated tubes. Cells were removed from plasma by centrifugation for 10 min at 2000×g at 4° C., and plasma samples were stored at −80° C. Following blood collection, mice were anesthetized with a lethal dose of ketamine/xylazine ([…] of a 10 mg:1 mg), and perfused with 18 ml of 0.9% cold saline mixed with 2 ml of RNAlater (Ambion) solution for tissue collection. Liver, skeletal muscle, cerebrum, and cerebellum samples were flash frozen in liquid nitrogen and stored at −80° C.
In experiments, as herein described, the branaplam dose is provided as a solution of branaplam monohydrochloride salt (10 mg/mL suspension) in methyl cellulose, medium viscosity 400 cP for a 1% solution), Tween 80 (1% v/v), purified water suspension formulation.
Total RNA from cerebrum and cerebellum was extracted using RNeasy Plus kit (Qiagen) after homogenized in Precellys at 6000 rpm for 40 sec. RNA from blood was extracted using PAXgene blood RNA kit (Qiagen) according to manufacturer protocol. The RNA was quantified by Nanodrop 2000 (Thermo Scientific). cDNAs were synthesized from 140-400 ng RNA using Maxima First strand cDNA synthesis kit using a mix of oligo dT and random hexamers (Thermo Scientific) in 20 uL reaction at 25° C. for 10 min, 50° C. for 15 min then 85° C. for 5 min. Quantitative PCR was performed using Taqman Fast Advanced master mix (Thermo Scientific) in 20 uL with 4 uL of cDNA reaction and primers specific for each genes. The PCR steps were as follows: 95° C. for 20 sec then 40 cycles of 95° C. for 1 sec, 55° C. for 20 sec. […] Relative quantification of gene expression was performed using 2^−ΔΔCT method. Fold changes in the mRNA expression level was calculated following normalization to mouse glucuronidase beta (Gusb) as an endogenous reference.

[1] = single oral dose 10 or 50 mg/kg, listed as branaplam

CC1(C)CC(Oc2ccc(-c3ccc(-c4cn[nH]c4)cc3O)nn2)CC(C)(C)N1 [Compound 18, 5-(1H-pyrazol-4-yl)-2-(6-((2,2,6,6-tetramethylpiperidin-4-yl)oxy)pyridazin-3-yl)phenol]
novel-exon-containing HTT transcript levels in brain (single oral dose 50 mg/kg, 48 h after dosing): trend towards return to vehicle levels
novel-exon-containing HTT transcript levels in brain (single oral dose 10 or 50 mg/kg, 8 and 24 h after dosing, listed as branaplam): elevates; also recorded: dose dependent increase
total HTT transcript levels in brain (single oral dose 10 or 50 mg/kg, 8 h and 24 h, listed as branaplam): lowers; also recorded: lowering trend at 8 h; also recorded: greater degree of lowering at the 50 mg/kg level, 24 hours post-dosing
novel-exon-containing HTT transcript levels in blood [1]: elevates; also recorded: robust modulation
total HTT transcript levels in blood [1]: lowers; also recorded: lowering
